US9221900B2, “Methods for identifying safe and functional humanized antibodies” (AC IMMUNE S.A., priority 2010, dated 2015)
“Also recorded” adds a separate entry of the source.

Tests used:
[1] = tested on: mixed cortical cells from P1 rats; assay: Aβ1-42 oligomer cytotoxicity assay, MTT readout; type: cell-based, rat; details: for reversal of Aβ1-42 oligomer-mediated toxicity: mixed primary cortical cultures, different IgG backbones
Description: (§1) FIG. 2 provides graphs and immunocytochemical images corresponding to the experiments described in Example 6.3. […] An MTT assay was used to determine cell viability as described in the Methods section. The means (±SEM) of five independent experiments are shown. *P<0.05, **P<0.01. […] Neurotoxicity following extended Aβ1-42 oligomer treatment was tested by morphological analyses (C).
(§2) A non-specific IgG monoclonal antibody was used as a control in all experiments.
Rat primary cortical cultures were prepared from Sprague-Dawley rats (Charles River Laboratories L'Arbresle, France) at post-natal day 1, as described by Meberg and Miller (Meberg and Miller, 2003). Cerebellum and meninges were removed, and cortices were cut into small pieces and dissociated with enzymatic disruption at 37° C. in dissociation buffer (papaine, CaCl2, EDTA, and HEPES; all from Invitrogen, Carlsbad, Calif.). DNase (Invitrogen) was added for 10 min. Following dissociation, dispersed cortical neurons were plated onto poly-L-lysine (0.01%; mol. wt 150,000-300,000; Sigma) coated 6-well, 24-well, or 96-well tissue culture plates. For immunocytochemistry, cells were grown on coated glass coverslips, into 24-well plates. Cells were maintained in Neurobasal media (Invitrogen) without phenol-red, with the addition of L-glutamine (2 mM; Sigma), B27 supplement (Invitrogen), and penicillin/streptomycin (Sigma) in a humidified incubator at 37° C. and 5% CO2. Following 1 h and 30 min in culture, the media was replaced with astrocyte-conditioned medium. After a further 4 days in culture, cell proliferation was blocked by treatment with cytosine arabinoside (Ara-C) at 2.5 μM (Invitrogen). Under these culture conditions, 20% of cells were identified as neurons by NeuN/DAPI staining (not shown). Experiments using mixed cortical cultures were generally performed at days-in-vitro (“DIV”) 6 unless stated otherwise. Enriched microglia prepared from cortex and hippocampus were harvested as described for cortical cultures above. Cortex and hippocampus were put in DMEM containing high glucose and homogenized by pipetting with a 10 mL pipette and then with a syringe. The homogenate was centrifuged for 3 min at 1,000×g, and then resuspended in pre-warmed DMEM containing high glucose containing 10% FCS and penicillin/streptomycin (microglia media). The cell suspension was next transferred to a T75 tissue-culture flask and kept in a humidified incubator at 37° C. and 5% CO2 for 1 week. The flask was shaken to separate microglia from adherent cells, and collected and washed in DMEM. The resulting cells were resuspended in 1 mL microglia media, counted, and plated at 5×10^4 cells/well. To verify microglial enrichment, cells were stained with the astroglial and microglial markers GFAP and Iba1, respectively. Greater than 60% of cells stained positive for Iba1, with no cells staining for both GFAP and Iba1. Pure microglia were prepared from post-natal day 3 CX3CR1-GFP mice (Jackson Laboratories). Cortex and hippocampus were dissected and triturated in DMEM containing high glucose using a 10 mL pipette, and then with an 18 gauge needle. The homogenate was centrifuged for 3 min at 1,000 g, and then resuspended in pre-warmed DMEM containing high glucose, 10% FBS and penicillin/streptomycin (microglia media). The cell suspension was next transferred to a T75 tissue-culture flask and kept in a humidified incubator at 37° C. and 5% CO2 for 7-10 d. Microglia were isolated by shaking, collected and washed in DMEM. The resulting cells were resuspended in 1 mL microglia media, counted, and plated on tissue culture treated glass chamber slides at 5×10^4 cells/well for use in experiments.
The cytotoxicity of Aβ1-42 oligomers was tested on mixed cortical cultures at DIV 5. All antibodies, at a final concentration of 100 μg/mL, were co-incubated with Aβ1-42 oligomers for 30 min in serum-free cell culture medium at 37° C. before treatment of cells. […]

Aβ1-42 = assay: Aβ ELISA, binding to Aβ peptides and Aβ1-42 assembly states; set-up: species or system human; details: Aβ ELISA; human and murine Aβ1-42 and human Aβ1-40
Excerpt: FIG. 1 provides graphs and immunohistochemical images corresponding to the experiments described in Example 6.1 and 6.2. […] As a control, an anti-Aβ IgG monoclonal antibody with a N-terminal epitope was used. […] The mean (±SEM) of two assays is shown.
Murine anti-Aβ monoclonal antibodies were generated by immunizing mice with an Aβ peptide antigen using a liposomal vaccine formulation as previously described (Muhs et al., 2007). Several criteria were used to select candidate antibodies, including the ability to bind multiple Aβ species and to inhibit Aβ1-42 assembly into small cytotoxic peptide aggregates. A monoclonal murine mAb with an IgG2b backbone (mMABT) was selected for in vivo functionality studies using both single-transgenic murine mutant human APP and double-transgenic murine mutant human APP/PS1 models of Alzheimer's Disease. […] These ranged from monomeric and oligomeric Aβ1-42 fractions isolated by size-exclusion chromatography (SEC), mature Aβ1-42 fibers, to a more complex mixture of highly neurotoxic Aβ1-42 oligomer assemblies, ranging in size from dimers and trimers to higher molecular-weight multimers (see FIG. 8).

[2] = tested on: mouse embryonic cortical neurons; assay: Aβ1-42-induced degeneration of embryonic cortical neurons, TuJ1 immunofluorescence; type: cell-based; details: Aβ1-42 with MABT for four days
Description: as §1, §2
The cytotoxicity of Aβ1-42 oligomers was tested on mixed cortical cultures at DIV 5. All antibodies, at a final concentration of 100 μg/mL, were co-incubated with Aβ1-42 oligomers for 30 min in serum-free cell culture medium at 37° C. before treatment of cells. For some experiments, mixed cortical cultures were pre-treated for 1 h with 1 μM SB239063, a potent second-generation p38 inhibitor, before treatment with Aβ1-42 oligomers. […] Briefly, for the last 3 h of treatment, cells grown in 96-well plates (Costar) were incubated with the MTT dye solution and the generation of a blue formazan product was measured by reading absorbance at 570 and 690 nm using a plate reader (Tecan). […] A FITC-labeled secondary antibody was used to visualize microtubules using fluorescence microscopy.

| binding to different Aβ peptides (Aβ1-42) | Substance | reversal of Aβ1-42 oligomer-mediated toxicity [1] | antibody-mediated increase in MTT signal under p38MAPK inhibition ([1]; 10 μM Aβ1-42 oligomers, 100 μg/ml antibody, 1 μM SB239063, 24 h) | rescue from Aβ1-42 oligomer toxicity (MTT) ([1]; Aβ1-42 oligomer up to 5 μM, 24 h, MABT to oligomer molar ratio 1:7.5) | neuronal morphology after Aβ1-42 treatment [2] |
| --- | --- | --- | --- | --- | --- |
| – | MABT-IgG1: same antigen binding sequences as MABT on human IgG1 wild-type backbone with full FcγR-binding capacity | full reversal of Aβ1-42 oligomer-mediated toxicity; also recorded: trended towards a smaller protective effect when compared to MABT | – | – | – |
| bound with high affinity | MABT: humanized anti-Aβ monoclonal antibody of IgG4 isotype, affinity matured and humanized form of mouse mMABT | full reversal of Aβ1-42 oligomer-mediated toxicity | reduced to that of MABT-IgG1-D265A | complete rescue from toxicity | appeared similar to control cells |
